Article PMC8927846 (Materials Today Bio, 2022)

Assays:
[1] = biological target: transferrin receptor (TfR); settings: read-out: Dissociation constant Kd to TfR; cited from earlier work
[2] = system: HBEC; experiment: Confocal imaging of uptake in HBEC; format: cell-based, human; settings: 125 nM AF 488-Tf, 1250 nM unlabeled Tf, 1 h, 37 °C
[3] = system: hiPS-BMEC; experiment: Confocal imaging of uptake and colocalization in hiPS-BMEC; format: cell-based, human; settings: 125 nM AF 488-Tf, 1250 nM unlabeled Tf, 1 h, 37 °C
[4] = system: hiPS-BMEC (human iPS-derived BMEC-like cells) monolayer; experiment: Transwell permeability across hiPS-BMEC monolayer; format: in vitro ADME; settings: cys-T7 versus cys-Tfr-T12 peptide

Substance | Kd [1] [nM] | further results
HAIYPRH [T7 peptide] | 10 | 
AF 488-Tf: Alexa Fluor 488 labeled transferrin |  | Internalization on co-incubation with 10-fold excess of unlabeled Tf [2]: reduced internalization; Internalization on co-incubation with 10-fold excess of unlabeled Tf [3]: reduced internalization
CHAIYPRH [cys-T7 peptide] |  | Permeability compared between the two peptides [4]: higher permeability
Tf: unlabeled transferrin, the native ligand of TfR | 2.8 | 
THRPPMWSPVWP [Tfr-T12 peptide] | 15 | 
